The record followed here is patent US5126483A, “1-phenylalkyl-3-phenylurea derivatives” (Mitsubishi Kasei Corporation, priority 1989, dated 1992).

Molecules are shown by their SMILES.

For test [1], the system named is cholesterol level in serum. Put plainly: Effect of reducing a lipid level in blood: serum cholesterol in hamsters fed 1% cholesterol / 0.5% cholic acid diet. The test is classed as in vivo, golden Syrian hamster. To be noted: once a day for 5 days, relative to control group. How it is done:
The effect of reducing a lipid level in blood by the action of the compounds according to the present invention was determined as follows:
Male golden Syrian hamsters weighing from 80 to 100 g were randomly divided into groups. The hamsters were first fed standard laboratory diets (solid feed MF-1 for mouse/rat/hamster, manufactured by Oriental Yeast Industries, KK) for 3 days. Then, they were fed the experimental diet containing 1% cholesterol and 0.5% cholic acid (manufactured by Oriental Yeast Industries, KK), ad libitum. At the same time, the compounds of the invention formulated in a shown dose (0.1-10 mg/10 ml water/kg) were administrated to the animals orally once a day at a determined time for 5 days. Water was administrated orally to the hamsters of control group in an amount of 10 ml per 1 kg of body weight. After five days of administrating the compounds, the animals were anesthetized with Pentobarbital Na (Nembutal injection, manufactured by Dainabbot) and three hours after the final administration of the test compound, a blood sample was taken from abdominal cava. The serum was separated from the sample by centrifuging.
The cholesterol level in the serum was determined by using a blood cholesterol measuring kit, Determina-TC5 manufactured by Kyowa Medix Co. The results are represented by percent inhibition (%) of cholesterol level in serum relative to that of the control group, and shown in the following Table 2.

Test [2] addresses acyl-CoA: cholesterol acyltransferase (ACAT). Put plainly: ACAT inhibitory action: cholesteryl-[14C] oleate formation in hamster microsomes. It is filed as biochemical. To be noted: radio-labelled oleoyl coenzyme A (14C). How it is done:
The ACAT inhibitory action of the compounds according to the present invention was measured as follows:
ACAT activity in the hamster microsomes was determined by measuring the rate of radio-active cholesteryl-[^14 C] oleate formation from cholesterol and radio-labelled oleoyl coenzyme A (^14 C) with or without test compound.
Calculations of IC50 value were made using data of the percent inhibition at each compound concentration.

[3] abbreviates: Mesocricetus auratus, po, 120 h, read-out: Percent inhibition of cholesterol in serum.
The mark [4] stands for this setting: Mesocricetus auratus, po, 120 h, 0.1 mg/kg, read-out: Percent inhibition of cholesterol in serum.

In the case of `CCCCC(CNC(=O)Nc1c(C(C)C)cccc1C(C)C)c1ccccc1C` (stereo not drawn) [Example 9], the inhibition in vivo at 1 mg/kg in test [1] (setting [3]) came to 19%. The half-maximal inhibitory concentration (IC50) (in general, the concentration needed to halve the response being measured) in test [2] worked out at 4.9 nM.

With `CCCCC(CNC(=O)Nc1c(C(C)C)cccc1C(C)C)Cc1ccc(Cl)cc1` (stereo not drawn) [Example 49], the inhibition in vivo at 10 mg/kg in test [1] (Mesocricetus auratus, po, 120 h, 10 mg/kg (footnote 2), read-out: Percent inhibition of cholesterol in serum) was 33%. Take `CCCCC(CNC(=O)Nc1c(C(C)C)cccc1C(C)C)c1ccc(C)cc1` (stereo not drawn) [Example 19]: the inhibition in vivo at 1 mg/kg in test [1] (setting [3]) was 36%. Turning to `CCCCC(CNC(=O)Nc1c(C(C)C)cccc1C(C)C)c1ccc(C)c(C)c1C` (stereo not drawn) [Example 24], in test [1] (setting [3]), the inhibition in vivo at 1 mg/kg amounted to 39%. For `CCCCCC(CNC(=O)Nc1c(C(C)C)cccc1C(C)C)c1cccc(C)c1` (stereo not drawn) [Example 12], the inhibition in vivo at 1 mg/kg in test [1] (setting [3]) is 43%. The compound further displayed an IC50 in test [2] of 26 nM. In the case of `CC(C)c1cccc(C(C)C)c1NC(=O)NCC(c1ccccc1)C(C)(C)C` (stereo not drawn) [compound 1, 1-(3,3-dimethyl-2-phenylbutyl)-3-(2,6-diisopropyl-phenyl)urea, reference compound], in test [1] (Mesocricetus auratus, po, 120 h, 5 mg/kg, read-out: Percent inhibition of cholesterol in serum), the inhibition in vivo at 5 mg/kg turned out to be 5%. With `CCCCCCC(CNC(=O)Nc1c(C(C)C)cccc1C(C)C)c1ccc(OC)c(OC)c1` (stereo not drawn) [Example 36], the inhibition in vivo at 1 mg/kg in test [1] (setting [3]) amounted to 26%. Take `CCCCCC(CNC(=O)Nc1c(C(C)C)cccc1C(C)C)c1cccc(OC)c1OC` (stereo not drawn) [Example 33]: the inhibition in vivo at 0.1 mg/kg in test [1] (setting [4]) is 24%. Further, the IC50 in test [2] was found to be 16 nM.

For `CCCCC(CNC(=O)Nc1c(C(C)C)cccc1C(C)C)c1cccc(OC)c1OC` (stereo not drawn) [Example 32], the inhibition in vivo at 1 mg/kg in test [1] (setting [3]) worked out at 43%. In the case of `CCCCC(CNC(=O)Nc1c(C(C)C)cccc1C(C)C)c1cccc(Cl)c1` (stereo not drawn) [Example 40], the inhibition in vivo at 1 mg/kg in test [1] (setting [3]) is 38%. In test [2], this compound had an IC50 of 31 nM. `CCCCC(CNC(=O)Nc1c(C(C)C)cccc1C(C)C)c1cccc(CC)c1` (stereo not drawn) [Example 15]: the inhibition in vivo at 1 mg/kg in test [1] (setting [3]) was 36%.

For `CCCCCC(CNC(=O)Nc1c(C(C)C)cccc1C(C)C)c1cccc(OC)c1OC` (single isomer, unassigned; (-)) [Example 51, (-)-1-(2-(2,3-dimethoxyphenyl)heptyl)-3-(2,6-diisopropylpheyl)urea], in test [1] (0.1 mg/kg, oral), the “Percent inhibition of cholesterol in serum” value was 25%. As to `CCCCCC(CNC(=O)Nc1c(C(C)C)cccc1C(C)C)c1cccc(OC)c1` (stereo not drawn) [Example 29], in test [1] (setting [3]), the inhibition in vivo at 1 mg/kg turned out to be 36%.

Take `CCCCCC(CNC(=O)Nc1c(C(C)C)cccc1C(C)C)c1cccc(OC)c1OC` (single isomer, unassigned; (+)) [Example 50, (+)-1-(2-(2,3-dimethoxyphenyl)heptyl)-3-(2,6-diisopropylpehyl)urea]: the inhibition in vivo at 0.1 mg/kg in test [1] (setting [4]) was 18%.
